Results as given in paper PMC7522982, “PKIS deep dive yields a chemical starting point for dark kinases and a cell active BRSK2 inhibitor” (Scientific Reports, 2020).

Columns and labels:
[1] = test system: 17 different cancer and normal cell lines; test: cell growth, deep dye drop method; format: cell-based; conditions: 1 μM for 72 h; 17 cancer and normal cell lines; deep dye drop method (N = 2)
Protocol: (A) Structure of GW296115. […] Cell lines in the panel were treated with 1 μM GW296115 for 72 h (N = 2) and analyzed using the deep dye drop method. MCF10A and MRC-5 are non-malignant cell lines. […] Coral was used to make (C): https://phanstiel-lab.med.unc.edu/CORAL.
This compound was further profiled in 17 different cancer and normal cell lines to determine whether it impacted cell growth when treated at 1 μM for 72 h. […] Here we further explore the target engagement characteristics of GW296115 in vitro and in cells and capture its specificity for the CAMK family of kinases.

PRKG2/PKG2 = PRKG2/PKG2 (Homo sapiens, UniProt Q13237); test: Eurofins kinase enzymatic radiometric assay; format: biochemical; parameters: purchased Eurofins; conditions: Km of ATP, 9-point curve in duplicate
Source text: (§1) Due to our interest in the activity of GW296115 on several understudied IDG kinases, we collected full dose–response curves for all wild type kinases inhibited ≥ 75% in the DiscoverX panel that were offered by Eurofins. Having data in orthogonal formats is a powerful way to confirm inhibitory activity and adds rigor to our results. Eurofins has kinase enzymatic radiometric assays for 35 of the kinases on this list (Table S2) and a kinase enzymatic LANCE assay for one additional kinase (MAP2K5/MEK5).
(§2) Eurofins kinase enzymatic radiometric assays were carried out at the Km of ATP in dose–response (9-pt curve in duplicate) for each kinase for which it was offered.

STK17A/DRAK1 = STK17A/DRAK1 (Homo sapiens, UniProt Q9UEE5); test: Eurofins kinase enzymatic radiometric assay; format: biochemical; parameters: purchased Eurofins; conditions: Km of ATP, 9-point curve in duplicate
Sequence of STK17A/DRAK1 (Q9UEE5 whole entry): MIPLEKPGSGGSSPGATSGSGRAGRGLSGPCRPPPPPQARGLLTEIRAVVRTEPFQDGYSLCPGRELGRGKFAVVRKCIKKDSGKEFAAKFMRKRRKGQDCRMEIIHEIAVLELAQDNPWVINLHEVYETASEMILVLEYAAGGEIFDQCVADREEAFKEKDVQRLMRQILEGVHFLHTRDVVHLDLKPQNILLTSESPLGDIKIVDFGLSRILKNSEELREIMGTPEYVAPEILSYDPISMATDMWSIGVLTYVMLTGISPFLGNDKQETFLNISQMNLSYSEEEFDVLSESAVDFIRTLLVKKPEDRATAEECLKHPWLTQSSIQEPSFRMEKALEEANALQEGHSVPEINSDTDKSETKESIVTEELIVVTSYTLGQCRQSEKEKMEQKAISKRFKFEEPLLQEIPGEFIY
Source text: as §1, §2

LRRK2 = LRRK2 (Homo sapiens, UniProt Q5S007); test: Eurofins kinase enzymatic radiometric assay; format: biochemical; parameters: purchased Eurofins; conditions: Km of ATP, 9-point curve in duplicate
Source text: as §1, §2

AURKC = AURKC (Homo sapiens, UniProt Q9UQB9); test: Eurofins kinase enzymatic radiometric assay; format: biochemical; parameters: purchased Eurofins; conditions: Km of ATP, 9-point curve in duplicate
Sequence of AURKC (Q9UQB9 whole entry): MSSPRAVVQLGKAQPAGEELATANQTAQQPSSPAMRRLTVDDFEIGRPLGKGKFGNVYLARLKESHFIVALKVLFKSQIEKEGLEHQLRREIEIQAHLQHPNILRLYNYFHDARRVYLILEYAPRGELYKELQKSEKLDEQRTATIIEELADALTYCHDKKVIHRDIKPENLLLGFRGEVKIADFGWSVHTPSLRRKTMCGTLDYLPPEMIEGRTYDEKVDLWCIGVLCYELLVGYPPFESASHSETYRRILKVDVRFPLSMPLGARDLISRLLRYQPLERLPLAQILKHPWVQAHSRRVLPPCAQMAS
Source text: as §1, §2

PDGFRB = PDGFRB (Homo sapiens, UniProt P09619); test: Eurofins kinase enzymatic radiometric assay; format: biochemical; parameters: purchased Eurofins; conditions: Km of ATP, 9-point curve in duplicate
Source text: as §1, §2

AXL = AXL (Homo sapiens, UniProt P30530); test: Eurofins kinase enzymatic radiometric assay; format: biochemical; parameters: purchased Eurofins; conditions: Km of ATP, 9-point curve in duplicate
Source text: as §1, §2

STK33 = STK33 (Homo sapiens, UniProt Q9BYT3); test: Eurofins kinase enzymatic radiometric assay; format: biochemical; parameters: purchased Eurofins; conditions: Km of ATP, 9-point curve in duplicate
Source text: as §1, §2

SGK3 = SGK3 (Homo sapiens, UniProt Q96BR1); test: Eurofins kinase enzymatic radiometric assay; format: biochemical; parameters: purchased Eurofins; conditions: Km of ATP, 9-point curve in duplicate
Sequence of SGK3 (Q96BR1 whole entry): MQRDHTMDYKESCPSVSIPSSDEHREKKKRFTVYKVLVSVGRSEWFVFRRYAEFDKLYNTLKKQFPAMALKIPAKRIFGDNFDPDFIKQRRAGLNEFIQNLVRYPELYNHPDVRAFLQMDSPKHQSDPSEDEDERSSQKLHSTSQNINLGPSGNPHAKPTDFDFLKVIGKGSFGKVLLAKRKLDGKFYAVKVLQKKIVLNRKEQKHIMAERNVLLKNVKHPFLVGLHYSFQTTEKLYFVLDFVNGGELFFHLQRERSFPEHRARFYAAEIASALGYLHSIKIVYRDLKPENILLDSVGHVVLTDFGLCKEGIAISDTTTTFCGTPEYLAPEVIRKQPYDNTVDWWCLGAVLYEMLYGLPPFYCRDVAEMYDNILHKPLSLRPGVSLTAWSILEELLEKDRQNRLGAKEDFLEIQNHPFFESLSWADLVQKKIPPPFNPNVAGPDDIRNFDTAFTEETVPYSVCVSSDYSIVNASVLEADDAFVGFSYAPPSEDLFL
Source text: as §1, §2

MAP3K11/MLK3 = MAP3K11/MLK3 (Homo sapiens, UniProt Q16584); test: Eurofins kinase enzymatic radiometric assay; format: biochemical; parameters: purchased Eurofins; conditions: Km of ATP, 9-point curve in duplicate
Source text: as §1, §2

BRSK2 = target: T1, BRSK2 (Homo sapiens, UniProt Q8IWQ3); test: Eurofins kinase enzymatic radiometric assay; format: biochemical; parameters: purchased Eurofins; conditions: Km of ATP, 9-point curve in duplicate
T1 sequence (Q8IWQ3 1-736): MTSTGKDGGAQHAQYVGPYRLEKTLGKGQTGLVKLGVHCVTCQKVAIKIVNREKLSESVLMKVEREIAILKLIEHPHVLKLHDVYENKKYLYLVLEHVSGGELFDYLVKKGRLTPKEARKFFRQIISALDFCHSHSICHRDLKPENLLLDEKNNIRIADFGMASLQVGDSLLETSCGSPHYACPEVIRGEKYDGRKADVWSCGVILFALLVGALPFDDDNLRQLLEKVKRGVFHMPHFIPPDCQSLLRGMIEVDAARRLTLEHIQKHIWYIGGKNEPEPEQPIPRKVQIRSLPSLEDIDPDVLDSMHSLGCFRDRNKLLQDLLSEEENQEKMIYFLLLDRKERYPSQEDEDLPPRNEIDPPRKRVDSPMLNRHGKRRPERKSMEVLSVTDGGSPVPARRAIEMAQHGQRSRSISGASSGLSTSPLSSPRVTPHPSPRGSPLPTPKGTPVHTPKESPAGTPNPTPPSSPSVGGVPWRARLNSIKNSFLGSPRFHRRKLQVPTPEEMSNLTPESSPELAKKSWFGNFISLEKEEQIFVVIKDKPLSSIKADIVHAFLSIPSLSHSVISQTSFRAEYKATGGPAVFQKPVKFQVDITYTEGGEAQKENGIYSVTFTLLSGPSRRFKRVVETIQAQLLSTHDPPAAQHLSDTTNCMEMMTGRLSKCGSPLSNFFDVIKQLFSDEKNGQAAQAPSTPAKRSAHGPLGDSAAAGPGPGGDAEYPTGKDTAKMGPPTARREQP
Source text: as §1, §2

ROS1 = ROS1 (Homo sapiens, UniProt P08922); test: Eurofins kinase enzymatic radiometric assay; format: biochemical; parameters: purchased Eurofins; conditions: Km of ATP, 9-point curve in duplicate
Sequence of ROS1 (P08922 28-2347): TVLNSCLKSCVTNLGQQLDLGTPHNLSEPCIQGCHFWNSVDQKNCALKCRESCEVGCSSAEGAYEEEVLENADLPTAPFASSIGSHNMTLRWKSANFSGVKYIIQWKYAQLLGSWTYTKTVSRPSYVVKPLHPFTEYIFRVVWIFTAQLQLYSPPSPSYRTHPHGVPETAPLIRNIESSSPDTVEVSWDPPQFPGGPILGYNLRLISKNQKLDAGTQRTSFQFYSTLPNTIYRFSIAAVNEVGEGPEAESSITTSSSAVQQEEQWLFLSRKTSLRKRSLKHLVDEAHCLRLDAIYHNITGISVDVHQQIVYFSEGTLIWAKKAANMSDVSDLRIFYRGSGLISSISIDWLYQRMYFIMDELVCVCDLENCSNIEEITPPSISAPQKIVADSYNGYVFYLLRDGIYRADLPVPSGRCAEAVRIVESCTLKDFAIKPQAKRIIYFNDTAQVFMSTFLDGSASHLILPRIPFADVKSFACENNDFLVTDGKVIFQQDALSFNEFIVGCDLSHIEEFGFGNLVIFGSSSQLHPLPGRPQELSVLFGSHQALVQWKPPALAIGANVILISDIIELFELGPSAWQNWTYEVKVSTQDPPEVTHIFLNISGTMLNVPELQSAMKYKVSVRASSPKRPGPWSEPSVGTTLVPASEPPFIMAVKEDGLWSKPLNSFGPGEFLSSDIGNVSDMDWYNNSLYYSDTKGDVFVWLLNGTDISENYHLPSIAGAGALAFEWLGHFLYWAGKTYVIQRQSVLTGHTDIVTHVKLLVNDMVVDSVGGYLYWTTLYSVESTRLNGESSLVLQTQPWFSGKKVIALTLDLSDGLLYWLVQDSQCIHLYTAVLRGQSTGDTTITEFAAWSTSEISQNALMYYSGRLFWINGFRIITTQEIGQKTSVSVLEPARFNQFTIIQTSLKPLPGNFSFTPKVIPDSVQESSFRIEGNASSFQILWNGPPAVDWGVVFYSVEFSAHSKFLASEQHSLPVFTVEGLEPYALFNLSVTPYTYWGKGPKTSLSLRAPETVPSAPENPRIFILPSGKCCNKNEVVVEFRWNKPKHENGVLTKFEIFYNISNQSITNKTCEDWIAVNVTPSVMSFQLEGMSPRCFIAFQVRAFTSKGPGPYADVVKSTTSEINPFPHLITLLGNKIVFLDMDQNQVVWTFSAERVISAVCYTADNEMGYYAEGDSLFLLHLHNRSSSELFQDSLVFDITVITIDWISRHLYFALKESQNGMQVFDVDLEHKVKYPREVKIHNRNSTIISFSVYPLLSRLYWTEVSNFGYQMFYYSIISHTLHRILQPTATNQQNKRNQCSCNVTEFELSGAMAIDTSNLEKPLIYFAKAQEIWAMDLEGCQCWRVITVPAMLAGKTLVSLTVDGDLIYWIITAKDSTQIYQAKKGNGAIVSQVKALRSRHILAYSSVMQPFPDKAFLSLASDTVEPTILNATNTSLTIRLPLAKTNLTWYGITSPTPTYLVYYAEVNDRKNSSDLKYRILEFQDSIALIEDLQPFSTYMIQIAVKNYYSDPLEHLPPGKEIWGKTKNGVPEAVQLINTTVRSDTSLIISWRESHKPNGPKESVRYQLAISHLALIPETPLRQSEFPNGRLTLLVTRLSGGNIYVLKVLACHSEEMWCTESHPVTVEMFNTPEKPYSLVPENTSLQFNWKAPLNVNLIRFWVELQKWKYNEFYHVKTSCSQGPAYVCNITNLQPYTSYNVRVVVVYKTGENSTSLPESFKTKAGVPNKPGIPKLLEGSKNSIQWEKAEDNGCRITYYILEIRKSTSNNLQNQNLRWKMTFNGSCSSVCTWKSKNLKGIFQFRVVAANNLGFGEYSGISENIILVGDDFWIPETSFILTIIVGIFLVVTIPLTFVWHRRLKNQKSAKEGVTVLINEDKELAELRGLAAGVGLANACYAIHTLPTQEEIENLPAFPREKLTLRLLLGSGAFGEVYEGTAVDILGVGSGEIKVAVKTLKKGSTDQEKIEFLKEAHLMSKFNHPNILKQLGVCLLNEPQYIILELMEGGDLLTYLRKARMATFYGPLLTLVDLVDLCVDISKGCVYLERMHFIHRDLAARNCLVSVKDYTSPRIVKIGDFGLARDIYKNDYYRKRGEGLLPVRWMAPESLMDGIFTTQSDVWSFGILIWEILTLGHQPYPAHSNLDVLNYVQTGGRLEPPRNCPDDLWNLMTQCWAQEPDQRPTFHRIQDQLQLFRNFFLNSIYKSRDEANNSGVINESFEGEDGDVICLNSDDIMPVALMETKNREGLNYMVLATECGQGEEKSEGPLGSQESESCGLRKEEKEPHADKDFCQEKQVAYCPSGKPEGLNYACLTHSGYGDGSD
Source text: as §1, §2

PDGFRA = PDGFRA (Homo sapiens, UniProt P16234); test: Eurofins kinase enzymatic radiometric assay; format: biochemical; parameters: purchased Eurofins; conditions: Km of ATP, 9-point curve in duplicate
Source text: as §1, §2

DAPK1 = DAPK1 (Homo sapiens, UniProt P53355); test: Eurofins kinase enzymatic radiometric assay; format: biochemical; parameters: purchased Eurofins; conditions: Km of ATP, 9-point curve in duplicate
Source text: as §1, §2

MYLK/MLCK/smMLCK = MYLK/MLCK/smMLCK (Homo sapiens, UniProt Q15746); test: Eurofins kinase enzymatic radiometric assay; format: biochemical; parameters: purchased Eurofins; conditions: Km of ATP, 9-point curve in duplicate
Source text: as §1, §2

MAP3K9/MLK1 = MAP3K9/MLK1 (Homo sapiens, UniProt P80192); test: Eurofins kinase enzymatic radiometric assay; format: biochemical; parameters: purchased Eurofins; conditions: Km of ATP, 9-point curve in duplicate
Source text: as §1, §2

DCLK3/DCAMKL3 = DCLK3/DCAMKL3 (Homo sapiens, UniProt Q9C098); test: Eurofins kinase enzymatic radiometric assay; format: biochemical; parameters: purchased Eurofins; conditions: Km of ATP, 9-point curve in duplicate
Source text: as §1, §2

TNIK = TNIK (Homo sapiens, UniProt Q9UKE5); test: Eurofins kinase enzymatic radiometric assay; format: biochemical; parameters: purchased Eurofins; conditions: Km of ATP, 9-point curve in duplicate
Sequence of TNIK (Q9UKE5 whole entry): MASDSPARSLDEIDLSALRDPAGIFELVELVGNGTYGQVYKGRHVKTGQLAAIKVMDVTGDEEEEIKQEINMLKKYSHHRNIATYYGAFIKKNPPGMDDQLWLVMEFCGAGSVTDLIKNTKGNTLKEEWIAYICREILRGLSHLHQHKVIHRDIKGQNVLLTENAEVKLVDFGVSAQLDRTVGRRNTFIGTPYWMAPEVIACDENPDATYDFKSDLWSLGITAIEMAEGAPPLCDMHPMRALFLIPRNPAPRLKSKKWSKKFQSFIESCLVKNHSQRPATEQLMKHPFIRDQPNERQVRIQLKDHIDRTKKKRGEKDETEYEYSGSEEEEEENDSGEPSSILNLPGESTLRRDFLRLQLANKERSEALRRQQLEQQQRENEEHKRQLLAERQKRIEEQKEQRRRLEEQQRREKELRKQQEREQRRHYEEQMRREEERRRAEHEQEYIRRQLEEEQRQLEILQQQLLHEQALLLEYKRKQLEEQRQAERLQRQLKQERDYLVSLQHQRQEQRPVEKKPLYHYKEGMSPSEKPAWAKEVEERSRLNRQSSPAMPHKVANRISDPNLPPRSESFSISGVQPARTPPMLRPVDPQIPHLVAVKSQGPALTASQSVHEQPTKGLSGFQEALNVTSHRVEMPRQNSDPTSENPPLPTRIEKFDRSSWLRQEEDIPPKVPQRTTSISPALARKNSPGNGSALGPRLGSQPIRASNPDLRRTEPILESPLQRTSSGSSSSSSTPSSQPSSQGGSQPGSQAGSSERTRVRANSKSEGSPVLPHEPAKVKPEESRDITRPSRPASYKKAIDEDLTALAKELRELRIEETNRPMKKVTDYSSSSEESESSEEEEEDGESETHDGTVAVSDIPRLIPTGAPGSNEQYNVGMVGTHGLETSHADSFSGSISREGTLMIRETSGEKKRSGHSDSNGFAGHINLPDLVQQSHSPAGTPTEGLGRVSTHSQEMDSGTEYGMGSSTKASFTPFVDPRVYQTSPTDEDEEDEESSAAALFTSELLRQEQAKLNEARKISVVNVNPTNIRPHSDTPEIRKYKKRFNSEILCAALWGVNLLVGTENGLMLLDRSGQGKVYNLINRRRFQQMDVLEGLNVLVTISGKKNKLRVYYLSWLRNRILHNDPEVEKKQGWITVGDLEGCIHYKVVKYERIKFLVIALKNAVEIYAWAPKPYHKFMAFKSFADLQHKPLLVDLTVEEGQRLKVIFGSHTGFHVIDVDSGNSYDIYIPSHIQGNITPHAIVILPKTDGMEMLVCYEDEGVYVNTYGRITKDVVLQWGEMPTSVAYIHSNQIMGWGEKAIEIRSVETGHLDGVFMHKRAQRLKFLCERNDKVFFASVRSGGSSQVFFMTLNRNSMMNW
Source text: as §1, §2

STK17B/DRAK2 = target: T2, STK17B/DRAK2 (Homo sapiens, UniProt O94768); test: Eurofins kinase enzymatic radiometric assay; format: biochemical; parameters: purchased Eurofins; conditions: Km of ATP, 9-point curve in duplicate
T2 sequence (O94768 1-372): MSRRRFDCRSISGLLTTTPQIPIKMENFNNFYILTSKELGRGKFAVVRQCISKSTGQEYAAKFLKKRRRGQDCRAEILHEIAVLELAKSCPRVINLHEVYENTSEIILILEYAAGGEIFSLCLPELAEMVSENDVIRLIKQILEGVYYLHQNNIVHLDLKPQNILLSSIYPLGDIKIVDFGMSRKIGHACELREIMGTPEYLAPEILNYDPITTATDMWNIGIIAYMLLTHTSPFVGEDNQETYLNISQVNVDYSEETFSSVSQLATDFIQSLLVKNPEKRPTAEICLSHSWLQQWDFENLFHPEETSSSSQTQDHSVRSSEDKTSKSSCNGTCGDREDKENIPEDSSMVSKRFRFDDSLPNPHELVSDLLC
Source text: as §1, §2

`COc1ccc2[nH]c3c4[nH]c5ccc(OC)cc5c4c4c(c3c2c1)C(=O)NC4=O` [GW296115] was tested. Which “effect on cell growth” value [1] did it give?
Its value is “did not impact cell growth”.

And the IC50 (PRKG2/PKG2)?
Its IC50 is 6.3 nM.

What about the IC50 (STK17A/DRAK1) of the same molecule?
The IC50 was 28 nM.

And the IC50 (LRRK2)?
Its IC50 is 25 nM.

What about the IC50 (AURKC) of the same molecule?
The IC50 was 4100 nM.

And the IC50 (PDGFRB)?
The IC50 was > 10000 nM.

What about the IC50 (AXL) of the same molecule?
Its IC50 is 160 nM.

What about the IC50 (STK33) of the same molecule?
Its IC50 is 110 nM.

And the IC50 (SGK3)?
Its IC50 is > 10000 nM.

What about the IC50 (MAP3K11/MLK3) of the same molecule?
The IC50 was 1.5 nM.

And the IC50 (BRSK2)?
The IC50 was 8.4 nM.

And the IC50 (ROS1)?
The IC50 was > 10000 nM.

What about the IC50 (PDGFRA) of the same molecule?
Its IC50 is 710 nM.

And the IC50 (DAPK1)?
The IC50 was > 10000 nM.

What about the IC50 (MYLK/MLCK/smMLCK) of the same molecule?
Its IC50 is 49 nM.

And the IC50 (MAP3K9/MLK1)?
The IC50 was 26 nM.

What about the IC50 (DCLK3/DCAMKL3) of the same molecule?
The IC50 was 89 nM.

What about the IC50 (TNIK) of the same molecule?
Its IC50 is 10 nM.

And the IC50 (STK17B/DRAK2)?
The IC50 was 5.5 nM.
